Results from PubChem BioAssay AID743267 (Broad Institute, 2014).

system: human bronchial epithelial cells, CFTR corrector, plate reader; assay: rescue of ΔF508 CFTR function, airway epithelium – human bronchial epithelial cells, plate reader, cherry-pick, two tests, dose response (AID 743267); details: measured here: test 1 replicate run

Structure (SMILES)	AC50 [µM]
Cc1ccc(-c2ccc3c(c2)O[C@@H](CN(C)Cc2ccccn2)[C@H](C)CN([C@H](C)CO)S3(=O)=O)cc1	13.6
CN1c2ccc(-c3ccc(F)cc3)cc2[C@H]2[C@H](CCN2S(=O)(=O)c2cccc(F)c2)[C@@H]1CO	7.66
COc1ccc(-c2ccc3c(c2)[C@H]2[C@H](CCN2S(=O)(=O)c2ccc(OC)cc2)[C@@H](CO)N3C)cc1	9.59
O=C1CN(S(=O)(=O)Cc2ccccc2)C[C@@H]2[C@@H](c3ccc(C#Cc4cccc(F)c4)cc3)[C@H](CO)N12	16

same assay, conditions: measured here: test 2 replicate run

Structure (SMILES)	AC50 [µM]
Cc1cccc(N(C)C(=O)c2cc3c(=O)[nH]c4ccc(C)cc4c3s2)c1	4.72
COc1cccc(/C=N/NC(=O)C(=O)Nc2ccccc2OC(F)(F)C(F)F)c1O	9.39
O=C(N/N=C/c1cc(Br)cc(Cl)c1O)c1ccc2c(c1)OCO2	9.98
COc1cc(/C=C2\SC(=S)N(NC(=O)c3ccncc3)C2=O)ccc1O	13.2
O=[N+]([O-])c1ccc(N2CCOCC2)c2c1no[n+]2[O-]	2.76
NS(=O)(=O)c1ccc(S(=O)(=O)N(CCc2ccccc2)Cc2ccccn2)cc1	< 0.0235
COc1cc(C2CC(=O)N(c3ccc(C)cc3)C(=O)C2)cc(OC)c1OC	2.37
Cc1cccc(NC(=S)N/N=C/c2cccc(O)c2)c1C	3.86
Cc1cc(C(=O)NNC(=O)c2ccc(Cl)c(S(N)(=O)=O)c2)c(C)o1	6.93
O=C1c2cccc3c(O)ccc(c23)C(=O)N1c1ccc(Cl)cc1	16.8
CC1CCN(C(=O)c2ccc(S(=O)(=O)N3CCCC3)cc2)CC1	> 50
CCOc1ccc(-c2cc(C(=O)N3CCN(c4ccccn4)CC3)c3ccccc3n2)cc1	16
Nc1ccc2ccc3cccc[n+]3c2c1	21.3
O=C(CCC(=O)N1CCOc2ccc(Cl)cc21)N1CCN(c2ccccn2)CC1	> 50
Clc1ccc(Nc2ccc3ccccc3n2)cc1	8.45
CCN(CC)c1ccc(/C=N/NC(=O)c2cnccn2)c(O)c1	2.2
COc1cc(C(=O)Nc2ccccc2C(=O)Nc2ccccn2)cc(OC)c1OC	4.59
COc1ccc(-c2ccc(OC)c(OC)c2OC)cc1	3.92
CCCC(=O)NC1=C(Cl)C(=O)c2ccccc2C1=O	11.8
O=C(O)c1ccccc1-c1c2cc(I)c(=O)c(I)c-2oc2c(I)c(O)c(I)cc12	16.7
C/C(=N\NC(=O)c1cc(-c2cccs2)nc2ccccc12)c1ccccn1	2.45
O=C(NCc1ccccc1)C1Cc2c(-c3ccc(Cl)cc3)ccnc2O1 (configuration not stated)	2.18
CC(OC(=O)CCCC(=O)Nc1ccc(F)cc1)C(=O)c1ccccc1 (configuration not stated)	> 50
CCOP(=O)(C#Cc1ccccc1)C(O)c1ccc(Br)cc1 (configuration not stated)	> 50
Cc1ccccc1-c1nc(CS(=O)(=O)CC(=O)NCc2ccccc2)c(C)o1	> 50
Cn1cccc1/C=C1\SC(=Nc2cccc(O)c2)NC1=O	13.5

Structure (SMILES)	AC50 [µM]
COc1cc2c(C#CCCO)c(-c3ccsc3)oc(=O)c2cc1OC	5.52
Cc1cnc(NC(=O)c2ccc3c(c2)OCCO3)s1	4.71
COc1ccccc1C1CC(=O)Nc2cc3c(cc21)OCCO3 (configuration not stated)	1.96
CCOC(=O)[C@]12CCCC=C1N(Cc1cccc3ccccc13)C(=O)[C@H](CC(=O)NCc1cccc(C(F)(F)F)c1)C2	30
Oc1ccc2ccccc2c1/C=C/c1ccc2c(Br)cc(Br)c(O)c2n1	21.5
CC(=O)NC(c1ccc(Cl)cc1Cl)c1ccc2cccnc2c1O (configuration not stated)	2.63
Cc1ccc(C(=O)NC(=S)NNC(=O)c2ccccc2O)cc1	> 50
CC1CCN(C(=O)C2COc3ccccc3O2)CC1 (configuration not stated)	35.1
O=C(CN1C(=O)NC2(CCCCCCC2)C1=O)Nc1ccc(Br)cc1	1.13
Cc1cc(C)c2nc(Cl)c(CN(Cc3ccco3)C(=O)Nc3ccccc3C)cc2c1	2.87
CCc1cc(-c2nnn(CCC3COCCO3)c2CC)ccc1-c1cn(Cc2ccc3ccccc3c2)nn1 (configuration not stated)	0.6
NS(=O)(=O)c1cc(C2(O)NC(=O)c3ccccc32)ccc1Cl (configuration not stated)	> 50
CC(C)CN(CCCNC(=O)CN1C(=O)CSc2ccc(S(=O)(=O)N3CCOCC3)cc21)CC(C)C	> 50
Cc1ccc2nc(-c3ccc4c(c3)OCCO4)cn2c1	2.33
COc1ccc(Nc2nc(-c3sc(C)nc3C)cs2)c(OC)c1	12.3
COc1ccc(S(=O)(=O)NCc2ccccn2)cc1NC(=O)c1ccccc1F	1.32
COc1cc(OC)cc(-c2cc3ccc(OC)cc3cn2)c1	43.6
CN[C@H]1CCc2cc(OC)c(OC)c(OC)c2-c2ccc(N(C)CC(OC)OC)c(=O)cc21	3.25
COCCNc1nc(Nc2ccc(C)cc2C)c2sccc2n1	2.34
COC(=O)C1=CN(c2ccc3c(c2)OCO3)C(N)=C(C#N)C1c1cccc(F)c1 (configuration not stated)	1.55
COc1ccc(C2C3=C(COC3=O)Oc3cc4c(cc32)OCO4)cc1OC (configuration not stated)	3.72
COc1ccc(NC(=O)C2(C)Cc3c(-c4cccc(NC(C)=O)c4)ccnc3O2)cc1 (configuration not stated)	4.58
Cc1cccc(N(C)S(=O)(=O)c2ccc(-c3cc(C)no3)s2)c1	0.738
O=c1c2ccccc2sc2c(CO)ccc(NCCN3CCCCC3)c12	5.18
COc1ccccc1N=C1SC(C(=O)Nc2cccc(Cl)c2Cl)C(N)=C1C(N)=O (configuration not stated)	6.08
CCOC(=O)c1ccc(Nc2sc(C(=O)c3cccc([N+](=O)[O-])c3)c(N)c2C#N)cc1	1.84

Structure (SMILES)	AC50 [µM]
Cc1c(OCC(=O)NCCN2CCOCC2)ccc2c3c(c(=O)oc12)CCC3	> 50
CC[C@H]1CN2CCC1C[C@H]2[C@H](O)c1ccnc2ccc(OC)cc12 (some centres not stated)	12.9
CC(=O)O[C@H]1C(=O)[C@@]2(C)C([C@H](OC(=O)c3ccccc3)[C@]3(O)C[C@H](OC(=O)[C@H](O)[C@@H](NC(=O)c4ccccc4)c4ccccc4)C(C)=C1C3(C)C)[C@]1(OC(C)=O)CO[C@@H]1C[C@H]2O (some centres not stated)	5.6
COC(=O)CSC1=C(C#N)C(c2ccc(C)o2)CC(=O)N1 (configuration not stated)	8.06
CC[N+]1(CC)CC2=Cc3ccccc3CC2C1 (configuration not stated)	27.8
Cc1cc(NC(=O)CN2C(=O)NC3(CCCCCC3)C2=O)ccc1Br	8.4
Cc1ccc(S(=O)(=O)N2CCOCC2)cc1NC(=O)CSc1n[nH]c(N)n1	> 50
CCOc1ccc2[nH]c(C(=O)N/N=C/c3ccc(OC)cc3)cc2c1	36.4
COc1ccccc1NC(=O)CSc1ccc(-c2ccccn2)nn1	20
O=c1c2ccccc2oc2cc(-c3ccc4[nH]ccc4c3)ccc12	1.94
COC(=O)c1cc2c(=O)c3ccccc3oc2nc1/C=C/N(C)C	0.984
O=C1c2ccccc2C(=O)c2c1cccc2N(CCO)CCO	> 50
Cc1cc(C(=O)N/N=C/c2ccc([N+](=O)[O-])cc2)c2ccccc2n1	3.96
COc1cc(OC)cc(C(=O)N[C@H](C(=O)Nc2nc3ccccc3[nH]2)C(C)C)c1	2.34
O=C1NC(=O)C(=Cc2ccc(N3CCOCC3)o2)C(=O)N1	> 50
COc1ccc(NS(=O)(=O)c2cc(NC(=O)Cc3c(F)cccc3Cl)ccc2OC)cc1	0.827
N#CC1=C(N)Oc2cc(N)ccc2C1c1cccc(F)c1 (configuration not stated)	3.15
CCN(CC)c1ccc(/C=C(/C#N)c2nc3ccc(C)cc3[nH]2)c(OC(C)C)c1	9.34
COc1cc(/C=C(\C#N)c2nc3ccccc3[nH]2)cc(OC)c1O	7.88
Cc1cc(C(=O)N/N=C/c2ccc(N(C)C)cc2)c2ccccc2n1	5.44
CCOc1cc(/C=N/NC(=O)N/N=C/c2ccc(O)c(OCC)c2)ccc1O	4.92
COc1ccccc1Cc1c(-c2ccc(Cl)cc2)nc2ccc(Br)cn12	8.16
COc1ccc(C(=O)OCC(=O)N2C(C)CCCC2C)cc1S(=O)(=O)N1CCOCC1 (configuration not stated)	29.6
Cc1cc2c(cc1C)C(c1ccccc1OC(C)C)CC(=O)N2 (configuration not stated)	1.85
COc1cc(C(=O)OCCc2cc3ccccc3c(=O)o2)cc(OC)c1OC	1.59
N#Cc1ccc(-c2cccs2)nc1SCc1cccnc1	0.519

Structure (SMILES)	AC50 [µM]
Cc1ccc(N2CC(C(=O)N(C)CC(=O)Nc3ccc(Cl)c(C(F)(F)F)c3)CC2=O)cc1 (configuration not stated)	33.3
Cn1c(CC(=O)NN)c(Sc2ccccc2)c2ccccc21	> 50
CCOC(=O)c1cc2c(=Cc3ccc(N(C)C)cc3)c3ccccc3n2[n+]1C	5.09
COc1cc(C(=O)Nc2ccc3c(c2)CCN3C(C)=O)cc(OC)c1OC	3.56
C[C@@H]1O[C@@H](O[C@@H]2C=C3CC[C@@H]4C(CC[C@]5(C)[C@@H](c6ccc(=O)oc6)CC[C@]45O)[C@@]3(C)CC2)[C@H](O)[C@H](O)[C@H]1O (some centres not stated)	1.42
COc1ccc(NC(=O)c2cc(S(=O)(=O)N3CCOCC3)ccc2C)cc1S(=O)(=O)N1CCOCC1	> 50
Cc1noc(C)c1COc1ccc(C(=O)NNC(=O)c2ccccc2)cc1	6.4
Cc1ccnc(N2C(=O)c3cccc4c([N+](=O)[O-])ccc(c34)C2=O)c1	6.5
COc1nc(-c2ccccc2)cc(-c2ccc3c(c2)OCO3)c1C#N	3.66
CCOc1ccc(C(=O)N[C@H](C(=O)Nc2cccc(S(=O)(=O)N3CCCCC3)c2)C(C)C)cc1	46.3
NS(=O)(=O)c1ccc(CNc2ccc3ccccc3n2)cc1	> 50
O=c1[nH]c(/C=C/c2ccccc2F)nc2ccccc12	2.69
O=C(N/N=C/c1cccs1)c1cccc(NC(=O)c2ccccc2Cl)c1	0.985
COc1ccc(S(=O)(=O)Cc2ccc(C(=O)N3CCN(c4cccc(C)c4)C(C)C3)o2)cc1 (configuration not stated)	3.68
CC(=O)Oc1ccc(N2C(=O)c3cccc4c([N+](=O)[O-])ccc(c34)C2=O)cc1	20.6
COc1cc(C#Cc2ccc3cc(CCCO)oc(=O)c3c2)cc(OC)c1	10.3
CC(=O)N1CCc2cc(S(=O)(=O)N3c4ccccc4CC3C)ccc21 (configuration not stated)	6.73
CN1/C(=C\C=C2/SC(=S)NC2=O)C(C)(C)c2ccccc21	18.5
CC(C)n1cc(/C=C/c2cc[n+](C)cc2)c2ccccc21	27.2
COc1ccc(Nc2nc3cc(-c4sccc4C)sc3c(=O)n2C)cc1OC	2.15
Cc1ccc(C(=O)N/N=C/c2cc(Br)ccc2O)cn1	0.672
Cc1cc(NCc2ccccn2)n2ncc(-c3ccccc3)c2n1	15.9
O=[N+]([O-])c1ccc(Sc2cccc[n+]2[O-])c2nonc12	12.7
O=C(NCCC1CCCCN1S(=O)(=O)c1cccs1)C(=O)Nc1ccc(F)cc1F (configuration not stated)	8.39
O=C1OCC2=C1C(c1ccc3c(c1)OCO3)c1cc3c(cc1O2)OCO3 (configuration not stated)	2.12
